Counter-ions that a name gives are not always drawn.
Experiments:
[1] = system: Streptococcus sanguis G9B, S. mutans Ingbritt and Actinomyces viscosus T14 V; assay: Adherence assay: inhibition of initial adherence of bacteria to saliva-coated hydroxyapatite beads; format: cell-based; details: 50% inhibition of bacterial adherence to saliva-coated hydroxyapatite (HA) beads, determined graphically; surfactant dissolved in water; 37° C.; read-out: 50% Inhibition Concentration
From the text: S. sanguis G9B adheres well to saliva-coated hydroxyapatite. This attachment, in vivo, occurs within minutes. As plaque matures, the percentage of S. sanguis decreases, but its actual numbers remain high. In vivo and in vitro studies have shown S. sanguis to interact with other oral bacteria including S. mutans and Actinomyces viscosus. S. mutans has also been implicated as a cause of dental caries. Stock cultures were kept both lyophillized and frozen in Brain Heart Infusion Broth (BHI, Difco Laboratories) at -70° C.; the latter being used to inoculate starter cultures. After overnight incubation at 37° C, a 0.5% inoculum was used to inoculate 100 ml of BHI which was subsequently incubated 20 hours at 37° C. The cells were radioactivately labeled by adding tritiated thymidine (methyl-3H) to a final specific activity of 2 μCi/ml. After incubation, the cells were harvested by centrifugation (16,320× g, 15 minutes, 4° C.), washed three times with buffered KCl (2 mM potassium phosphate buffer, 1 mM CaCl2, and 5 mM KCl, pH 6.0) (Ref. 8), and resuspended to a turbidity of 300 Klett units (Klett-Summerson colorimeter; blue, #47 filter). This bacterial stock cell suspension was then diluted with buffered KCl to produce a series of cell suspensions ranging from 1.6 to 300 Klett units. Duplicate 50 ul aliquots of each cell suspension were counted in Aquasol-2 to determine their specific activities.
A. viscosus T14 V was grown for 48 hours at 37° C. under anaerobic conditions in tryptic soy broth (TSB) containing glucose.
Whole, paraffin-stimulated saliva was collected into ice-chilled tubes and clarified by centrifugation ([…], 15 minutes, 4° C.). The supernatant fluids were removed and aliquots were stored frozen at -20° C. until used. A pool of saliva from several individuals was used routinely; and was collected after a 10 hour fast with no food or oral hygiene on the morning of collection.
Spheroidal hydroxyapatite beads (manufactured by BDH Chemicals, Poole, England and obtained from Gallard-Schlessinger Co., Carle Place, NY) were distributed into a 12×75 mm polystyrene test tube (Walter Sarstedt, Inc., Princeton, N.J.) and mixed with either 1 ml of saliva or buffered KCl for 1.5 hours at ambient temperature with rotation (20 rpm). Each tube contained 40±2 mg of HA beads, distributed using a calibrated stainless steel ladle.
The cells were radioactively labelled by addition of 1.5 μCi/ml methyl-^3 H thymidine to the cell suspension media. The hydroxyapatite (HA) beads were coated with either a surfactant or a control or saliva and rotated for 30 minutes at ambient temperature. The excess agent or saliva was removed by washing with buffer. Radioactively-labelled cells suspended in either buffer or varying concentrations of the surfactant were added to the beads. The beads and cells were incubated at 37° C., 10 minutes for the streptococcal strains and 15 minutes for the actinomycete, after which the beads were washed to remove the unbound cells and the radioactivity bound to them was determined by scintillation counting. S. mutans Ingbritt was also assayed for sucrose-mediated adherence by addition of 1% sucrose to the cells and surfactant mixture. The concentration to effect 50% inhibition of bacterial adherence to the HA beads was determined graphically.
Several surfactant agents according to the invention dissolved in water were employed in the assay.

[2] = target: glucosyl transferase; assay: Assay for the inhibition of glucosyl transferase activity (14C-sucrose incorporation into glucan); format: biochemical; details: 50% inhibition of glucosyl transferase activity; 0.05M sodium acetate buffer, pH 5.5, 37° C.; read-out: 50% Inhibition Concentration
Procedure: An assay for the inhibition of glucosyl transferase activity was developed wherein the enzyme was incubated for 10 minutes with varying concentrations of the surfactant in 0.05M sodium acetate buffer, pH 5.5 at 37° C., with agitation. The reaction was then started by adding the remainder of the assay mixture (to a final volume of 450 mcl) consisting of: 2.5 μCi uniformly-labelled 14C -sucrose, 1% unlabelled sucrose, sodium fluoride and Dextran T10 in acetate buffer. Samples were removed at timed intervals, spotted to filters and the filters were treated with methanol. Radioactivity incorporated into glucan was plotted versus time as compared to a control preparation. By this procedure the concentration of test reagent necessary to achieve 50% inhibition of glucosyl transferase activity was determined.

Compound	IC50 [1]	IC50 [2]
CCCCCCCCCCCCCCCC(=O)N(C)CCS(=O)(=O)O [Surfactant 1, N--methyl-N--palmitoyltaurine, sodium salt]	250 µM	1000 µM
CCCCCCCC/C=C\CCCCCCCC(=O)N(C)CCS(=O)(=O)O [Surfactant 2, N--methyl-N--oleolytaurine sodium salt]	350 µM	1000 µM
Cocamidopropylhydroxysultaine [Surfactant 4]	15000 µM	–
Cocamidopropylhydroxysultaine, potassium salt [Surfactant 5]	25000 µM	–
Cocoylisethionate, sodium salt [Surfactant 6]	100 µM	–
N--methyl-N--cocoyltaurine sodium salt [Surfactant 3]	300 µM	1000 µM

— US4828849A, “Surfactant inhibition of dental plaque” (Warner-Lambert Company, priority 1988, dated 1989)
